For one data set, the system named is DSS induced colitis. Description: DSS induced colitis, body weight loss. The class given is in vivo, mice (strain Balb C). As to conditions: in food equimolar to 0.5 mg C11AG/g.
Source text: (§1) Female mice (strain Balb C, 9 weeks old) were obtained from Charles River and were kept under specific pathogen free conditions under an artificial day/night rhythm. Animals were fed with Altromin standard diet and received water ad libitum. Colitis was induced by addition of dextran sulfate (DSS) (MW 36,000–50,000, ICN, Aurora, Ohio, lot 2387F) to drinking water at a concentration of 7.5%. For C11AG treatment the free base of C11AG (lot 2-3-3) was used. Animals received Altromin powder food, mixed with 0.5 mg C11AG/g or with equimolar concentration of C11AG salt (i.e. 0.785 mg/g C11AG hexanate). As determined in calibration experiments Balb C mice (8–12 weeks old) consume each day 150 g food/kg body weight. The corresponding daily doses of C11AG were therefore: 75 and […]. Body weight loss is one of the most evident symptoms of DSS induced colitis. Mean body weight was determined every day for each group and the weight loss was calculated.
as §1, with “libitum.Colitis” for “libitum. Colitis”, “Animals received Altromin powder food, mixed with 0.5 mg C11AG/g or with equimolar concentration of C11AG salt (i.e. 0.785 mg/g C11AG hexanate).” left out, “calculated. Mean weight loss was added over a period of eleven days.” for “calculated.”

In data set [1] the target is neutral sphingomyelinase from Bacillus cereus (Bacillus cereus, UniProt P11889). Kind of data set: biochemical. Conditions: pH 7.2, 37° C., 24 h. The protocol: Paranitrophenylphosphoryl-choline was dissolved to a final concentration of 1 mg/ml in 0.1 M Tris at pH 7.2 and 10 mM […]. […] The optical density is a measure for the quantity of cleaved substrate. Dose-effect curves were used to determine the concentration at which the enzyme activity is inhibited by 50% (IC50).

In data set [2] the test system is nude mice (strain: Swiss, Nu/Nu). Kind of data set: Physiological tolerability after subcutaneous application (tissue damage after 24 h). How it is done: Aliquots of 0.1 ml each were administered to 3 nude mice (strain: Swiss, Nu/Nu) by subcutaneous application. After 24 h, the degree of tissue damage was recorded. The results are shown in Table 4, in which no visible damage=−, reddening=+, edemas=++, and necroses=+++.

Data set [3] in a line: Solubility of C11AG salts in water.
Data set [4] in a line: Solubility of C11AG salts in potassium phosphate buffer (crystal formation by microscope). Conditions: for Crystals: pH 7.4, 4 mM C11AG salt.
Setting [5] is: Example 10, mean weight loss added over eleven days, FIG. 3.
Where [6] appears, read: IC50, paranitrophenylphosphoryl-choline substrate.
Setting [7] is: paranitrophenylphosphoryl-choline substrate.

What is called IC50 is the point on the concentration scale where inhibition reaches its midpoint. A higher IC50 goes with weaker potency in that assay. As a reminder, the solubility is the dissolved amount per volume that the medium holds.

Sequence of neutral sphingomyelinase from Bacillus cereus (P11889 28-333): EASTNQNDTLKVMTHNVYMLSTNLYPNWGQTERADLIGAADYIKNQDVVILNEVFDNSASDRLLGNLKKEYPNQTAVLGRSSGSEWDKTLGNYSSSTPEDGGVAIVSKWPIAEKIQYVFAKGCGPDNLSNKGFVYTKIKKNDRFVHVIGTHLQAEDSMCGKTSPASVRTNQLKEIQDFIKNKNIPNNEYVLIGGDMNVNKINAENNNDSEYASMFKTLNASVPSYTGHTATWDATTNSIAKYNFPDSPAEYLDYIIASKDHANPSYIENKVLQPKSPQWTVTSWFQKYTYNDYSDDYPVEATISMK

Take “undecylideneaminoguanidine hexanoate [hexanoic acid salt of C11AG]”: the “Protection from DSS induced weight loss as compared to the free base” value is recorded as “more pronounced” with DSS induced colitis (Example 9, mean weight loss per day, FIG. 2) and “more pronounced” with DSS induced colitis (setting [5]).

For `CCCCCCCCCCC=NNC(=N)N` [Chloride, reference compound], half-maximal inhibition in data set [1] (setting [6]) (IC50) was put at 3.53 µM. Besides, the “lowest concentration leading to reddening and edemas” value in data set [2] (Swiss Nu/Nu (nude), mouse, in vivo, sc, 24 h) is reported as 20 mM. Besides, in data set [3] (water), the solubility was over 10000 µg/mL. Moreover, the Crystals entry in data set [4] (phosphate 1 mM–1,000 mM) was “yes”.

“undecylideneaminoguanidine octanoate [octanoic acid salt of C11AG]”: in the data set with DSS induced colitis (setting [5]), the “Protection from DSS induced weight loss as compared to the free base” value is “more pronounced”.

On to `CCCCCCCCCCC=NNC(=N)N` [Oenanthate, undecylideneaminoguanidine oenanthate], for which the IC50 in data set [1] (setting [6]) was 3.31 µM. For the same molecule, the Solubility in water in data set [3] was over 10000 µg/mL. For the same molecule, the Crystals result in data set [4] (phosphate 1 mM–1,000 mM) is “no”.

In data set [1] (setting [7]), undecylideneaminoguanidine pelargonate gave an IC50 of 0.95 µg/mL. Also, in data set [3], the Solubility in water is over 10000 µg/mL. The Crystals result in data set [4] (phosphate 1 mM–1,000 mM) is reported as “no”.

On to “undecylideneaminoguanidine decanoate [Decanate]”, for which the “Protection from DSS induced weight loss as compared to the free base” value in the data set with DSS induced colitis (setting [5]) was “more pronounced”.

On to `CC(=O)O.CCCCCCCCCCC=NNC(=N)N` [Acetate, undecylideneaminoguanidine acetate], for which the concentration for half-maximal inhibition (IC50) in data set [1] (setting [7]) was found to be 0.85 µg/mL. In data set [2] (0.1 ml subcutaneous, nude mice, after 24 h), the “concentration up to which well-tolerated / no damage” value is 20000 µM. Also, in data set [3], the Solubility in water is over 10000 µg/mL. For the same molecule, the Crystals result was “no” in data set [4] (phosphate 1 mM) and “yes” in data set [4] (phosphate 10 mM–1,000 mM). For the same molecule, in data set [4] (potassium phosphate buffer pH 7.4, 4 mM C11AG salt), the “phosphate concentration at which the salt precipitates (forms insoluble phosphates)” value amounted to 10 mM.

`CC(O)C(=O)O.CCCCCCCCCCC=NNC(=N)N` [Lactate, undecylideneaminoguanidine lactate] yielded an IC50 in data set [1] (setting [7]) of 0.9 µg/mL. Also, the Crystals result in data set [4] (phosphate 1 mM) was “no”; in data set [4] (phosphate 10 mM–1,000 mM), “yes”.

Regarding Undecylenate, in data set [3], the Solubility in water came to 100 µg/mL.

As to Dodecylphosphonate, the Solubility in water in data set [3] came out at 100 µg/mL.

Values taken from patent US7078566B2, “Salts of guanidine derivatives and pharmaceutical preparations consisting thereof” (Biosphinks Aktiengesellschaft, priority 2001, dated 2006).
